According to ChEMBL document CHEMBL1201862, “PubChem BioAssay data set” (2004):
Active and inactive are the calls of the source.

How the values were obtained:
[1] = blockers of CRF-binding protein–CRF-R2 complex – cell-based, uHTS hits, 384-well, dose response (AID 651639); type: functional, Homo sapiens; settings: read-out: IC50_Mean
[2] = target: T1, Corticotropin-releasing factor receptor 2/Corticotropin-releasing factor-binding protein (Homo sapiens, UniProt P24387+Q13324); experiment: Dose Response confirmation of uHTS hits for small molecule antagonists of the CRF-binding protein and CRF-R2 receptor complex.; type: functional; settings: read-out: IC50_Mean
T1 sequence (Q13324 whole entry): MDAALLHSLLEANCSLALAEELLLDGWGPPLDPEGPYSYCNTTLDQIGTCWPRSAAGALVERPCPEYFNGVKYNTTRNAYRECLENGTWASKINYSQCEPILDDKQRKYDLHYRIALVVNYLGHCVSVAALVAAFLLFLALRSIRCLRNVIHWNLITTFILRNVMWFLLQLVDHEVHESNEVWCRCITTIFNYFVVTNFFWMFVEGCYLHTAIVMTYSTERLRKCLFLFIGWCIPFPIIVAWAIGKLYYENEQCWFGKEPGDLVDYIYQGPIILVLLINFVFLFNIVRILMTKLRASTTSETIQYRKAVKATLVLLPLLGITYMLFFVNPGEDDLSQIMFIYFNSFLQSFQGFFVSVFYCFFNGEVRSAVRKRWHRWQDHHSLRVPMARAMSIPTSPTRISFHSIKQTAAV
T1 sequence (P24387 whole entry): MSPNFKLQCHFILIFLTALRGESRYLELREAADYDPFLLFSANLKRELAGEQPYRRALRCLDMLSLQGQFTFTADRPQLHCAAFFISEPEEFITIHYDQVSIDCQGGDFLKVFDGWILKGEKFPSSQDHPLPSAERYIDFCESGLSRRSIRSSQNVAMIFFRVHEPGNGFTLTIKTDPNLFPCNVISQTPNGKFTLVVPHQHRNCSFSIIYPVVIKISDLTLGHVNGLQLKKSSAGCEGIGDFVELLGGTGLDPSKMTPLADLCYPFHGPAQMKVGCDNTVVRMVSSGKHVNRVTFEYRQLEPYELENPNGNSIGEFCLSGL

[3] = target: T1, Corticotropin-releasing factor receptor 2/Corticotropin-releasing factor-binding protein; experiment: activators of CRF receptor 2 with binding protein – uHTS hits, confirmation (AID 602473); type: functional; settings: read-out: EC50_Mean
[4] = target: T2, fMet-Leu-Phe receptor (Homo sapiens, UniProt P21462); experiment: formyl peptide receptor binders – dose response (AID 519); type: functional
T2 sequence (P21462 whole entry): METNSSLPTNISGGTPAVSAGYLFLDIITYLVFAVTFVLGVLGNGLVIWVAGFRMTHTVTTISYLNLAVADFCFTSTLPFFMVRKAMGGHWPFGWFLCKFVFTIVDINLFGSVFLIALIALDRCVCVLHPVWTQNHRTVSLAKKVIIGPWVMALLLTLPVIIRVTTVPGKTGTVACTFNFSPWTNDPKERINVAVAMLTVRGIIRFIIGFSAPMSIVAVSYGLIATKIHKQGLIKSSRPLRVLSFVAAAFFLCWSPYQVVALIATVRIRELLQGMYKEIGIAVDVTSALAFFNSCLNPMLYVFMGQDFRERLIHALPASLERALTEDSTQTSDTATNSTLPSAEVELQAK

[5] = nonselective StAR promoter luciferase inhibitors – cell-based, luminescence, luciferase reporter, counter-screen for LRH-1 inverse agonist project, dose response (AID 651969); type: functional
[6] = target: Nuclear receptor subfamily 5 group A member 2 (Homo sapiens, UniProt O00482); type: functional, cell-based;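 note: HEK293T cells transfected with LRH-1 and a StAR promoter luciferase reporter; potency for inhibitors that lower LRH-1 driven reporter light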
Sequence of Nuclear receptor subfamily 5 group A member 2 (O00482 whole entry): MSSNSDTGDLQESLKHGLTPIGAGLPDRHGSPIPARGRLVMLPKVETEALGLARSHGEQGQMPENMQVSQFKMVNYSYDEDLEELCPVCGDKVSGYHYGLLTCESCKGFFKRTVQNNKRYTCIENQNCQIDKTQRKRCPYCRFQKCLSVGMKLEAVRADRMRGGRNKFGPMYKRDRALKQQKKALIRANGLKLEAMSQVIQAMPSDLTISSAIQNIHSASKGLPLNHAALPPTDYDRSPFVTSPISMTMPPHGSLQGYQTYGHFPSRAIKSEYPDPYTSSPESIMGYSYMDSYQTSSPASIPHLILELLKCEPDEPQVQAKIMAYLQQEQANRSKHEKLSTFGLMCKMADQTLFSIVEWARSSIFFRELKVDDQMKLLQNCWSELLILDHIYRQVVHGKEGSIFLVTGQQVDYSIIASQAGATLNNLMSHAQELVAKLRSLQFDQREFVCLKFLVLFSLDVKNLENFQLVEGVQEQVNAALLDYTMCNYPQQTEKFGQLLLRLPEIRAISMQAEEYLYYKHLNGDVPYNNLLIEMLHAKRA

[7] = target: Steroidogenic factor 1 (Homo sapiens, UniProt Q13285); experiment: Counterscreen for inverse agonists of the liver receptor homolog-1 (LRH-1; NR5A2): Luminescence-based cell-based high throughput dose response assay to identify inverse agonists of the Steroidogenic Factor 1 Nuclear Receptor (SF1; NR5A1).; type: functional
Sequence of Steroidogenic factor 1 (Q13285 whole entry): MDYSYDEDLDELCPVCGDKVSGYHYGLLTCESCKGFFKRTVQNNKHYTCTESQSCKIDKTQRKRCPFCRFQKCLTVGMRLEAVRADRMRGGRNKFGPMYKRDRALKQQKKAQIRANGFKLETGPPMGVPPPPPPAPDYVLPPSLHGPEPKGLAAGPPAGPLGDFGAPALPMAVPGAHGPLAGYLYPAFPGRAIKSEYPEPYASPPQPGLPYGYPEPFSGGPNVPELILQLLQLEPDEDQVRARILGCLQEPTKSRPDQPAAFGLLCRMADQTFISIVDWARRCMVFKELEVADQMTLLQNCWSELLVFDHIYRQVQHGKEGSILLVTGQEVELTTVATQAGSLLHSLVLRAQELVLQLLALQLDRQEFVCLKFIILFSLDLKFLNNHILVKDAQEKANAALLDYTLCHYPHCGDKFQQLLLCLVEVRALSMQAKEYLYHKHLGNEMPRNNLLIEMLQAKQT

[8] = target: T3, Interleukin-8 (Homo sapiens, UniProt P10145); experiment: Dose Response confirmation of uHTS small molecule hits for cystic fibrosis induced NFkb Inhibitors in a PAF-induced IL8 counterscreen.; type: functional; settings: read-out: IC50_Mean
T3 sequence (P10145 whole entry): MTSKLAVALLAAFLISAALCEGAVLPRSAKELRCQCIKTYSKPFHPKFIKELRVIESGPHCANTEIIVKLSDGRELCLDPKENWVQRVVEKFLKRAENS

[9] = tested on: Vero; experiment: cells; type: functional, cell-based; settings: Chlorocebus sabaeus
[10] = tested on: Vero; experiment: cells; type: functional; settings: Chlorocebus sabaeus
[11] = target: T4, Rac GTPase-activating protein 1 (Homo sapiens, UniProt Q9H0H5); experiment: blockers of MgcRacGAP-driven Rac1 GTP hydrolysis – biochemical, ADP Hunter fluorescence, primary and confirmatory, confirmation (AID 624330); type: functional
T4 sequence (Q9H0H5 whole entry): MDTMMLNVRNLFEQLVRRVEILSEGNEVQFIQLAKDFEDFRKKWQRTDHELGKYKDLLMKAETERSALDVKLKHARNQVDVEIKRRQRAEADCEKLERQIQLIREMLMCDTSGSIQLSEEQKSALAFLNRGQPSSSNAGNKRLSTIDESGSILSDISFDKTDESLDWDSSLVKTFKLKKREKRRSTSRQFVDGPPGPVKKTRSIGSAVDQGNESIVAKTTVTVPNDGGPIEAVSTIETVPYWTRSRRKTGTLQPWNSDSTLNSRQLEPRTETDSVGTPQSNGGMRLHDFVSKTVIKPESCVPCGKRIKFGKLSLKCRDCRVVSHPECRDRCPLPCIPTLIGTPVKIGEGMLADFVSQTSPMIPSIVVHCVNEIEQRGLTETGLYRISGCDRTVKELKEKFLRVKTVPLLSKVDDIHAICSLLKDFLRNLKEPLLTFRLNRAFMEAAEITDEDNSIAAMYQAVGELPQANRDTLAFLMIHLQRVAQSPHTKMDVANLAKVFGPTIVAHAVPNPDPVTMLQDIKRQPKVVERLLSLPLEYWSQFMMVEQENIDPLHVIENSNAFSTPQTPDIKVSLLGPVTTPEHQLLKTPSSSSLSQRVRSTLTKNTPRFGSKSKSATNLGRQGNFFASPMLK

[12] = target: T5, DNA repair protein RAD52 homolog (Homo sapiens, UniProt P43351); type: functional, biochemical
T5 sequence (P43351 whole entry): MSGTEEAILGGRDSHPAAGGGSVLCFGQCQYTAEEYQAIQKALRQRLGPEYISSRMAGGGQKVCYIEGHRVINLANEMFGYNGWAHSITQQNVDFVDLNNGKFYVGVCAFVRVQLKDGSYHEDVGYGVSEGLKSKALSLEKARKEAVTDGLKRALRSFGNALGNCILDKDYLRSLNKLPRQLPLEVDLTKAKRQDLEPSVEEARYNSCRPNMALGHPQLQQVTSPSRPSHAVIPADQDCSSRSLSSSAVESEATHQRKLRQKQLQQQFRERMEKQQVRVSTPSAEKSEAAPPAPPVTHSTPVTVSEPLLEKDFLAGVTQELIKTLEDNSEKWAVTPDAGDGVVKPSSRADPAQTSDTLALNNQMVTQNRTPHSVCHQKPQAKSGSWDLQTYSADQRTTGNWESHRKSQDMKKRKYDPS

CCN(CC)C(=O)[C@H]1C[C@H](CC(=O)NC/C=C(\C)CCC=C(C)C)C(=O)N2CCc3c([nH]c4ccc(Cl)cc34)[C@]12C
IC50 [1]: 1.72 µM (active)
IC50 [2]: < 0.368 µM (active)
EC50 [3]: > 53 µM (inactive)

COc1ccc(OC)c(C2C(C(=O)c3cccs3)=C(O)C(=O)N2c2cc(C)on2)c1 (configuration not stated)
Ki [4]: > 66.7 µM (inactive)

COCCNc1ccc([N+](=O)[O-])cc1C(=O)NC1CCCc2ccccc21 (configuration not stated)
IC50 [5]: 35.9 µM (inactive)
IC50 [6]: 9.5 µM (active)
IC50 [7]: 5.53 µM (active)

CCc1cc(-c2n[nH]cc2-c2ccc(OC)cc2)c(O)cc1O
IC50 [8]: 6.31 µM (active)

CCCNC(=O)CS(=O)(=O)Cc1nc(-c2cccc(OC)c2)oc1C
Ki [4]: > 66.7 µM (inactive)

O=C(NC1CCCCC1)c1ccc([N+](=O)[O-])o1
IC50 [9]: > 25 µM (active)
CC50 [10]: 18.4 µM (active)

Cc1csc(NC(=O)CCn2c(=O)oc3ccccc32)n1
Ki [4]: > 66.7 µM (inactive)

CCCCN(CC)CCNC(=O)CCC(=O)Nc1ccc2nc(N3CCN(C)CC3)cc(C)c2c1
IC50 [11]: 164 µM (active)
AC50 [12]: 3.22 µM (active)

CCOc1ccc(NC(=O)CSc2nncc(O)n2)cc1
IC50 [5]: 35.9 µM (inactive)
IC50 [6]: 0.594 µM (active)
IC50 [7]: 0.178 µM (active)
